{"source": "patent US8481484B2", "about": "“Cyclic heptapeptide and use of the same” (National University Corporation Nagoya University, priority 2007, dated 2013)"}
{"system": "Murine preadipocytes (3T3-L1)", "test": "Fat accumulation in 3T3-L1 preadipocytes during induced differentiation (Triglyceride E-test)", "format": "cell-based", "settings": "3T3-L1, differentiation-inducing medium with test compound, seven days; stated in words, numbers only in FIG. 7", "experimental": "Murine preadipocytes (3T3-L1) have such a property as to accumulate fat following differentiation. In the present test, while differentiation of 313-L1 preadipocytes was induced by insulin and the like, test compounds were simultaneously added. Then, an amount of fat in the cells was measured to evaluate that the test compounds exert inhibition of differentiation of the preadipocytes or an inhibitory effect on fat accumulation following differentiation. In this test, in a case where cells die due to the test compounds, there is concern that the test might unintentionally result in a low fat accumulation rate, which is seemingly a favorable result. […] Also, fat accumulation was observed under a microscope from time to time during the test.\nPreadipocytes (3T3-L1) were cultured to confluence in the presence of 5% CO2 at 37° C. for two days in 150 μL of culture media (DMEM containing 10% fetal bovine serum (glucose concentration of […])) in two 96-well microplates. Then, with respect to both plates, the culture media were aspirated and replaced with 150 μL of differentiation-inducing media containing a certain concentration of test compounds (DMEM containing 10% fetal bovine serum (glucose concentration of […]) in which 1 μM dexamethasone, 10 μg/mL insulin, and 0.5 mM 3-isobutyl-1-methylxanthine were dissolved). Normally, methanol solution containing a 200-fold concentration of test compounds (1a, 1b, 1c, 1d, and 1e) was prepared, and 7.5 μL of the solution was added with respect to 1.5 mL of the differentiation-inducing media. At this time, a well that was not replaced with the differentiation-inducing medium and a well to which only methanol was added instead of a sample solution were prepared as a control. The plates were cultured in the presence of 5% CO2 at 37° C. for seven days. Thereafter, one plate was served for measurement of an amount of fat, and the other plate was served for measurement of a survival rate.\nTo each well of the plate for measurement of an amount of fat, 10 μL of 2% Triton X-100 was added, and the plate was left to stand for 30 minutes. Subsequently, the plate was sealed with a sealing tape (a product of Asahi Techno Glass Corporation) and sonicated for one minute in an ultrasonic cleaner. Subsequently, 20 μL of solution was collected from each well and added to a 96-well microplate in which 150 μL of Triglyceride E-test Wako (a product of Wako Pure Chemical Industries, Ltd.), a coloring reagent, had been added to each well, and then the plate was incubated at 37° C. for 30 minutes, after which absorbance (at 630 nm, control at 690 nm) was measured by a plate reader. A ratio of absorbance in a compound-added group to absorbance in a compound-free group was obtained as a percentage, which was provided as a fat accumulation rate. Fat accumulation rates with respect to a concentration in each sample were represented as a semilogarithmic graph. From this graph a compound concentration at which a fat accumulation rate was 50% was read off, which was provided as a 50% effective concentration (EC50). It can be interpreted that the smaller the EC50 value is, the stronger the inhibitory effect on differentiation of adipocytes or on fat accumulation in adipocytes is."}
{"smiles": "CC[C@H](C)[C@H]1NC(=O)[C@@H]([C@H](C)O)NC(=O)[C@@H](C)N(C)C(=O)[C@H](C)N(C)C(=O)[C@H](CC(C)C)NC(=O)[C@H](CC(C)C)N(C)C(=O)[C@H](C)N(C)C1=O", "note": "[1d]", "EC50 (compound concentration at which the fat accumulation rate is 50%); inhibitory effect on differentiation of adipocytes or on fat accumulation": "excellently exerts an inhibitory effect on differentiation of adipocytes or on fat accumulation in adipocytes"}
{"smiles": "CC[C@H](C)[C@H]1NC(=O)[C@@H](CC(C)C)NC(=O)[C@@H](C)N(C)C(=O)[C@H](C)N(C)C(=O)[C@H](CC(C)C)NC(=O)[C@H](CC(C)C)N(C)C(=O)[C@H](C)N(C)C1=O", "note": "[1b]", "EC50 (compound concentration at which the fat accumulation rate is 50%); inhibitory effect on differentiation of adipocytes or on fat accumulation": "excellently exerts an inhibitory effect on differentiation of adipocytes or on fat accumulation in adipocytes"}
{"smiles": "CC[C@H](C)[C@H]1NC(=O)[C@@H](COCc2ccccc2)NC(=O)[C@@H](C)N(C)C(=O)[C@H](C)N(C)C(=O)[C@H](CC(C)C)NC(=O)[C@H](CC(C)C)N(C)C(=O)[C@H](C)N(C)C1=O", "note": "[1c]", "EC50 (compound concentration at which the fat accumulation rate is 50%); inhibitory effect on differentiation of adipocytes or on fat accumulation": "excellently exerts an inhibitory effect on differentiation of adipocytes or on fat accumulation in adipocytes"}
{"smiles": "CC[C@H](C)[C@H]1NC(=O)[C@@H](CO)NC(=O)[C@@H](C)N(C)C(=O)[C@H](C)N(C)C(=O)[C@H](CC(C)C)NC(=O)[C@H](CC(C)C)N(C)C(=O)[C@H](C)N(C)C1=O", "note": "[1e]", "EC50 (compound concentration at which the fat accumulation rate is 50%); inhibitory effect on differentiation of adipocytes or on fat accumulation": "excellently exerts an inhibitory effect on differentiation of adipocytes or on fat accumulation in adipocytes"}
{"smiles": "CC[C@H](C)[C@H]1NC(=O)[C@@H](C)NC(=O)[C@@H](C)N(C)C(=O)[C@H](C)N(C)C(=O)[C@H](CC(C)C)NC(=O)[C@H](CC(C)C)N(C)C(=O)[C@H](C)N(C)C1=O", "note": "[1a]", "EC50 (compound concentration at which the fat accumulation rate is 50%); inhibitory effect on differentiation of adipocytes or on fat accumulation": "excellently exerts an inhibitory effect on differentiation of adipocytes or on fat accumulation in adipocytes"}
